From patent EP4624457A1, “I[…] DERIVATIVES, I[…] NEURODEGENERATIVE DISEASES” (Centre National de la Recherche Scientifique, priority 2024, dated 2025)
Where two headings read alike, the source gives them in different places.

Tests used:
Test in all cases: Cell viability / proliferation assay (CellTiter Glo luminescence, 72 h)
Assay type in all cases: cell-based
[1] = system: A2780 ovarian carcinoma cells
Description: (§1) • Figure 1 represents the chemical structure of ingrilimine according to compound (Illa) formula. • Figure 2 represents the cytotoxic activity of ingrilimine. A2780 ovarian and HT29 colorectal carcinoma cells were grown in RPMI 1640 supplemented with 10% fetal calf serum (FCS) and 1% glutamine. U87-MG glioblastoma cells were grown in Dulbecco minimal essential medium containing 4.5 g/L glucose, 10% FCS and 1% glutamine at 37 °C in a humidified atmosphere containing 5% CO2. For IC50 determination, the cells were seeded in 96-well plates (3 × 10^3 cells/well) containing 90 µL of growth medium. After 24 h of culture, the cells were treated with ingrilimine at 10 different final concentrations. Cell viability was determined by luminescence after 72 h incubation. (a) Effect of ingrilimine on A2780 ovarian carcinoma cells. (b) Effect of ingrilimine on U87-MG glioblastoma cells. (c) Effect of ingrilimine on U87-MG glioblastoma cells • Figure 3a-3f represent the mitochondrial dysfunction provoked by ingrilimine. HCT116 cells were treated with ingrilimine in the range of […] for 24h and 48h. Sector Q normal cells that accumulated the JC-1 dye (fluorescence emission 590 nm). […] (a) Non-treated cells incubated with the carrier (DMSO) for 24 h. (b) HCT116 cells incubated with […] ingrilimine for 24 h. (c) HCT116 cells incubated with 250 nM ingrilimine for 24 h. (d) Non-treated cells incubated with the carrier (DMSO) for 48 h. (e) HCT116 cells incubated with […] ingrilimine for 48 h. (f) HCT116 cells incubated with 250 nM ingrilimine for 48. Changes in fluorescence emission were recorded by flow cytometry using the JC-1 mithocondrial membrane potential-dependent fluorescent dye. NT = non-treated cells; IngX = ingrilimine. • Figure 4a-4f represents phosphatidylserine exposure provoked by ingrilimine. A2780 cancer cells were incubated with ingrilimine in the range of 10-500 nM before staining with FITC-Annexin V and propidium iodide. Quadrants D1 and D2 with dead or necrotic cells, quadrant D3 with normal cells and quadrant D4 with apoptotic cells following phosphatidylserine exposure. (a) Non-treated A2780 cells incubated with the carrier (DMSO) for 24h. (b) A2780 cells incubated with 10 nM ingrilimine for 24 h. (c) A2780 cells incubated with 250 nM ingrilimine for 24 h. (d) Non-treated A2780 cells incubated with the carrier (DMSO) for 48 h. (e) A2780 cells incubated with 10 nM ingrilimine for 48 h. (f) A2780 cells incubated with 250 nM ingrilimine for 48. […] exposure in A2780 cell was quantified by flow cytometry using FITC-Annexin V. Dead or necrotic cells were detected using the vital dye propridium iodide. NT = non-treated cells; IngX = ingrilimine. • Figure 5 represents the antagonistic activity of ingrilimine (named "IngX" in the figure) and portimine (named "Port A" in the figure) against nicotinic acetylcholine receptors recorded by two-electrodes voltage clamp electrophysiology on Xenopus laevis oocytes. Clamped Xenopus laevis oocytes having incorporated the muscle (α1)2βγδ nAChR subtype from Torpedo marmorata (filled squares), or expressing the neuronal α3β2 nAChR subtype from rat (filled triangles), or expressing the human neuronal α7 nAChR subtype (filled circles) were exposed to portimine (100 nM - 1 mM) for 45 seconds. […] A Xenopus laevis oocyte expressing the human α7 nAChR subtype was exposed to 100 µM acetylcholine triggering the immediate opening of the receptor's channel (black bold line) followed by the very-fast closure of the channel ([…]) that became insensitive to acetylcholine during the rest of the 5 seconds exposure (desensitization). When a Xenopus laevis oocyte expressing the human α7 nAChR subtype was exposed first to 10 nM ingrilimine for 45 seconds and then to a mixture (Mix) containing 10 nM ingrilimine and 100 µM acetylcholine, the receptor's channel was closed denoting a strong antagonistic activity of the tested toxin against the α7 nAChR subtype (dotted line). […]

[2] = system: HT29 colorectal carcinoma cells; details: for IC50: 72 h incubation, mean ± SEM from three distinct experiments
Description: as §1

[3] = system: U87-MG glioblastoma cells; details: for IC50: 72 h incubation, mean ± SEM from three distinct experiments
Description: as §1

Compound | IC50 ([1]; 72 h incubation, mean ± SEM from three distinct experiments, read-out: IC50 ± SEM (nM) A2780) [nM] | IC50 [2] [nM] | IC50 [3] [nM] | IC50 ([1]; Homo sapiens, A2780, 72 h incubation, mean ± SEM from three distinct experiments, read-out: IC50 ± SEM (nM) A2780) [nM] | IC50 ([1]; Homo sapiens, A2780, HT29 and U87-MG together, read-out: IC50 values, range over the three cancer cell lines tested) [nM] | times less potent than portimine-A to kill the A2780 ovarian cancer cells ([1]; ratio of IC50) [times] | cytotoxic activity, times less potent compared to portimine-A ([2]; HT29, ratio of IC50) [times] | IC50 ([2]; Homo sapiens, HT-29) [nM] | IC50 ([3]; Homo sapiens, U-87 MG) [nM] | cytotoxic activity, times less potent compared to portimine-A ([3]; U87-MG, ratio of IC50) [times]
C=CC1=C[C@@H]2[C@@H]3O[C@]4(CC[C@H](O4)[C@@H](C)C[C@@H](O)C3=O)C[C@H](O)C3=NCC[C@@]32CC1 [Portimine-A] | 0.77 ± 0.1 | 6.4 ± 0.1 | 8.1 ± 7.8 |  |  |  |  |  |  | 
C=CC1=C[C@@H]2C[C@@H](O)[C@@H](O)/C(C)=C/C/C(C)=C/CCC3=NCCC[C@]32CC1 [Ingrilimine, ingrilimine] |  |  |  | 10.6 ± 0.2 | 10 to 45 | 13 | 5 | 34.3 ± 1.1 | 44.2 ± 0.3 | 5
